Experimental data reported in PubChem BioAssay AID977622 (Broad Institute, 2014).
Records with an inconclusive call do not appear. The source made the active and inactive calls.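 Rule for the calls: active = Green signal of the normal strain falls at least twice as much as red signal of the resistant mutant, with overall culture growth loss under a set limit; inconclusive = no clear call, values can overlap the other calls; inactive = the rest.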

Test system: E. coli WT ribosome GFP fluorescence, mixed culture, 24 h
Test: growth inhibition of wild-type GFP E. coli, dose response, h38 mutant RFP, cherry-pick (AID 977622)
[1] = E. coli mixed culture, 24 h, measured here: total growth OD600

Row | SMILES | AC50 | AC50 [1]
1 | COC(=O)c1c(C)oc(C)c1S(=O)(=O)NC(c1ccccc1)c1ccccc1 | > 100 µM (inactive) | 35.7 µM
2 | Cc1cccc(S(=O)(=O)Nc2ccc(-c3cn4ccccc4n3)cc2)c1 | > 100 µM (inactive) | 26.7 µM
3 | Cc1ccc(C)c(N(CC(=O)NC2CCCC2)C(=O)c2oc(C(C)(C)C)cc2C)c1 |  | > 100 µM
4 | O=C(CC(c1ccccc1)c1cc(Br)ccc1O)N1CCCC1 (configuration not stated) | > 100 µM (inactive) | 
5 | Cc1onc(-c2ccccc2Cl)c1C(=O)OCC(=O)c1ccccc1 |  | > 100 µM
6 | Nc1[nH]c(C(=O)c2ccccc2)c(-c2ccc3c(c2)OCO3)c1C(=O)NCCc1c[nH]c2ccccc12 |  | > 100 µM
7 | Cc1cccc(CN2C(=O)c3ccccc3Sc3ccc(C(=O)O)cc32)c1 |  | > 100 µM
8 | COc1ccc(C)c2sc(N(CCN(C)C)C(=O)c3ccc(S(=O)(=O)N(C)c4ccccc4)cc3)nc12 |  | > 100 µM
9 | CCOc1ccc(OCCn2c(=S)[nH]c3c(N)ncnc32)cc1 | > 100 µM (inactive) | 39 µM
10 | O=C(Nc1cccc(O)c1)c1cc(-c2ccccc2Cl)on1 | > 100 µM (inactive) | 
11 | O=C(Cc1cccc(NC(=O)C2CCCN(C(=O)CCc3ccccc3)C2)c1)Nc1cccc(C(=O)N2CCCC2)c1 (configuration not stated) | > 100 µM (inactive) | 
12 | Nc1ccccc1Nc1ccc([N+](=O)[O-])cc1[N+](=O)[O-] | > 100 µM (inactive) | 
13 | Cc1cc2nc(SCC(=O)O)nc(C)c2cc1C |  | > 100 µM
14 | CCN(CC)S(=O)(=O)c1cccc(NC(=O)CNc2cccc(S(=O)(=O)N3CCCC3)c2)c1 | > 100 µM (inactive) | 
15 | CC(OC(=O)CCc1nc2ccccc2c(=O)[nH]1)C(=O)c1ccc(Br)cc1 (configuration not stated) | > 100 µM (inactive) | 
16 | NC(=O)c1ccsc1NC(=O)COC(=O)Cc1ccc(F)cc1 |  | > 100 µM
17 | O=C(Nc1cccc(Cl)c1)N1C[C@@H]2[C@H](c3ccccc31)[C@H](CO)N2Cc1ccncc1 |  | > 100 µM
18 | COC(=O)CN1C(=S)N(c2ccc(Cl)cc2)C(=O)C1CC(=O)Nc1ccc(F)cc1 (configuration not stated) | > 100 µM (inactive) | 
19 | CC(=O)OC(COc1cccc(C)c1)Cn1cnc2ccccc21 (configuration not stated) | > 100 µM (inactive) | 50.7 µM
20 | COc1ccc(CC(=O)NCc2csc(-c3cccs3)n2)cc1OC |  | > 100 µM
21 | Cc1ccc(-n2cc(CNCCN3CCOC3=O)c(-c3ccc(F)cc3)n2)cc1 |  | > 100 µM
22 | COc1ccc(OC2C(=O)N(Cc3ccc4c(c3)OCO4)C2c2sccc2C)cc1 (configuration not stated) | > 100 µM (inactive) | 

Row | SMILES | AC50 | AC50 [1]
23 | Cc1cc(NC(=O)c2cccc(Oc3ccccc3)c2)n[nH]1 | > 100 µM (inactive) | 40.6 µM
24 | Cc1ccc(S(=O)(=O)N2CC[C@H]3[C@H](CO)Nc4ccc(Br)cc4[C@H]32)cc1 | > 100 µM (inactive) | 29.1 µM
25 | Cc1cc(C)c(OCCNC(=O)c2ccccc2Sc2ccccc2C#N)c(C)c1 | > 100 µM (inactive) | 
26 | CCOc1ccc(N(CC(=O)NC(C(C)C)C(C)C)S(=O)(=O)c2ccc(OC)c(OC)c2)cc1 | > 100 µM (inactive) | 50.9 µM
27 | CNC(=O)c1ccsc1NC(=O)c1ccc2c(c1)CCCC2 | > 100 µM (inactive) | > 100 µM
28 | COc1cc(C(=O)NCCc2c[nH]c3ccccc23)ccc1OCc1c(C)noc1C | > 100 µM (inactive) | > 100 µM
29 | O=C(COC(=O)C1CC2C=CC1C2)Nc1ccc([N+](=O)[O-])cc1 (configuration not stated) |  | > 100 µM
30 | O=C1NC(CCc2ccccc2)C(=O)N1Cc1cccc2ccccc12 (configuration not stated) | > 100 µM (inactive) | 51.5 µM
31 | O=C(C[C@H]1CC[C@@H]2[C@H](COC[C@@H](O)CN2C(=O)Nc2cc(Cl)cc(Cl)c2)O1)N1CCOCC1 | > 100 µM (inactive) | 
32 | CCOC(=O)C1CCCN(C(=O)c2csc(-c3ccc4c(c3)CCO4)n2)C1 (configuration not stated) | > 100 µM (inactive) | 
33 | COc1ccc(CNC(=O)c2sc3nc4c(c(C(F)(F)F)c3c2N)CCC4)cc1OC |  | > 100 µM
34 | Nc1ccccc1C#CC(=O)c1ccccc1 | > 100 µM (inactive) | 
35 | O=C(NCc1cccnc1)C1CCN(S(=O)(=O)c2cc([N+](=O)[O-])ccc2Cl)CC1 | > 100 µM (inactive) | 
36 | CSc1ccccc1NC(=O)c1ccccc1N(Cc1ccccc1)S(C)(=O)=O | > 100 µM (inactive) | 
37 | O=C(C[n+]1cc(-c2ccc(Cl)c(Cl)c2)n2c1CCC2)OCc1ccccc1 | > 100 µM (inactive) | 
38 | Fc1ccc(-c2nnc(-c3ccc4ccccc4c3)o2)cc1 | > 100 µM (inactive) | 
39 | CC(=O)Nc1ccc2nc3ccccc3nc2c1 | > 100 µM (inactive) | > 100 µM
40 | CN(c1ccccc1)S(=O)(=O)c1cccc(NC(=O)CCN2C(=O)C3CCCCC3C2=O)c1 (configuration not stated) | > 100 µM (inactive) | > 100 µM
41 | O=C(NCc1ccccc1)c1ccc(-c2ccccc2F)o1 | > 100 µM (inactive) | 28.8 µM
42 | CCN(CC)S(=O)(=O)c1ccc(O)c(C(=O)OCC(=O)NC23CC4CC(CC(C4)C2)C3)c1 |  | > 100 µM
43 | O=S(=O)(c1ccccc1)N1C[C@H]2[C@@H](c3ccccc31)[C@@H](CO)N2Cc1ccccc1 | > 100 µM (inactive) | 
44 | COc1ccc(CN2CCC3CC2c2cc(Cl)ccc23)cc1 (configuration not stated) |  | > 100 µM
